Reference: PubChem BioAssay AID330 (DTP/NCI, 2004)
“And” between values parts separate entries of the source, which are not always exact repeats. Identical values can stand only once. Toxic doses and inconclusive results are not listed.

Test system: P388 leukemia ip, CD2F1 mice, survival T/C
Assay: NCI In Vivo Anticancer Drug Screen. Data for tumor model P388 Leukemia (intraperitoneal) in CD2F1 (CDF1) mice
Conditions: endpoint: median survival time, higher = longer survival
How it was run: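 Mice carrying the transplanted tumor received test compound or vehicle. Survival was recorded in each group, and the value is the treated-group measurement divided by that of the vehicle-treated control group.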

[1] = dose: 50.0 mg/kg/injection, schedule: Q01DX009 (ip), vehicle: saline
[2] = dose: 100.0 mg/kg/injection, schedule: Q01DX009 (ip), vehicle: saline
[3] = dose: 100.0 mg/kg/injection, schedule: Q01DX009 (ip), vehicle: saline with Tween-80
[4] = dose: 200.0 mg/kg/injection, schedule: Q01DX009 (ip), vehicle: saline with Tween-80
[5] = dose: 100.0 mg/kg/injection, schedule: Q04DX003 (ip), vehicle: saline with Tween-80
[6] = dose: 200.0 mg/kg/injection, schedule: Q04DX003 (ip), vehicle: saline with Tween-80
[7] = dose: 50.0 mg/kg/injection, schedule: Q01DX009 (ip), vehicle: saline with Tween-80

## O=C1c2ccccc2C(=O)N1CC[P+](Cc1ccccc1)(Cc1ccccc1)Cc1ccccc1
dose: 0.78 mg/kg/injection, schedule: Q01DX009 (ip), vehicle: other
  T/C: 105 % of control
dose: 1.56 mg/kg/injection, schedule: Q01DX009 (ip), vehicle: other
  T/C: 97 % of control
dose: 3.13 mg/kg/injection, schedule: Q01DX009 (ip), vehicle: other
  T/C: 97 % of control
dose: 6.25 mg/kg/injection, schedule: Q01DX009 (ip), vehicle: other
  T/C: 106 % of control
dose: 12.5 mg/kg/injection, schedule: Q01DX009 (ip), vehicle: other
  T/C: 99 % of control and 90 % of control
dose: 25.0 mg/kg/injection, schedule: Q01DX009 (ip), vehicle: other
  T/C: 112 % of control and 91 % of control
dose: 50.0 mg/kg/injection, schedule: Q01DX009 (ip), vehicle: other
  T/C: 105 % of control
dose: 100.0 mg/kg/injection, schedule: Q01DX009 (ip), vehicle: other
  T/C: 89 % of control

## CC[NH-].CC[NH-].[Cl][Pt+2][Cl]
dose: 3.12 mg/kg/injection, schedule: Q01DX009 (ip), vehicle: saline
  T/C: 150 % of control
dose: 3.12 mg/kg/injection, schedule: Q01DX009 (ip), vehicle: suspension in saline
  T/C: 116 % of control
dose: 6.25 mg/kg/injection, schedule: Q01DX009 (ip), vehicle: saline
  T/C: 162 % of control
dose: 12.5 mg/kg/injection, schedule: Q01DX009 (ip), vehicle: saline
  T/C: 159 % of control
dose: 12.5 mg/kg/injection, schedule: Q01DX009 (ip), vehicle: suspension in saline
  T/C: 97 % of control

## C1CNNCCNN1
[1]
  T/C: 112 % of control
[2]
  T/C: 106 % of control and 108 % of control and 90 % of control
dose: 200.0 mg/kg/injection, schedule: Q01DX009 (ip), vehicle: saline
  T/C: 109 % of control and 115 % of control and 89 % of control
dose: 400.0 mg/kg/injection, schedule: Q01DX009 (ip), vehicle: saline
  T/C: 112 % of control and 120 % of control and 93 % of control
dose: 800.0 mg/kg/injection, schedule: Q01DX009 (ip), vehicle: saline
  T/C: 121 % of control

## COc1c(OC(C)=O)ccc2c1C=CCCC2=O
[3]
  T/C: 104 % of control
[4]
  T/C: 102 % of control
dose: 400.0 mg/kg/injection, schedule: Q01DX009 (ip), vehicle: saline with Tween-80
  T/C: 102 % of control

## CC(C)(C)N1CCOCN2CCCCC2CCN(C(C)(C)C)CCOCN2CCCCC2CC1 (stereo not given)
dose: 50.0 mg/kg/injection, schedule: Q01DX005 (ip), vehicle: saline
  T/C: 100 % of control
dose: 100.0 mg/kg/injection, schedule: Q01DX005 (ip), vehicle: saline
  T/C: 99 % of control
dose: 200.0 mg/kg/injection, schedule: Q01DX005 (ip), vehicle: saline
  T/C: 100 % of control

## O=S=NSc1c(F)c(F)c(F)c(F)c1F
dose: 50.0 mg/kg/injection, schedule: Q01DX005 (ip), vehicle: saline with Tween-80
  T/C: 104 % of control
dose: 100.0 mg/kg/injection, schedule: Q01DX005 (ip), vehicle: saline with Tween-80
  T/C: 111 % of control

## CC(=O)OCC1OC(n2nc(/C=C/c3ccco3)c(=O)n(-c3ccccc3)c2=S)C(OC(C)=O)C(OC(C)=O)C1OC(C)=O (stereo not given)
[5]
  T/C: 107 % of control
[6]
  T/C: 100 % of control
dose: 400.0 mg/kg/injection, schedule: Q04DX003 (ip), vehicle: saline with Tween-80
  T/C: 101 % of control

## CCCCCCCCCCCCCCCCS(=O)(=O)CCO
[7]
  T/C: 95 % of control
[3]
  T/C: 90 % of control
[4]
  T/C: 86 % of control

## Cc1ccc(/C=N\N=C\c2ccc(C)cc2)cc1
[7]
  T/C: 100 % of control
dose: 50.0 mg/kg/injection, schedule: Q04DX003 (ip), vehicle: saline with Tween-80
  T/C: 91 % of control
[3]
  T/C: 90 % of control
[5]
  T/C: 87 % of control
[4]
  T/C: 90 % of control
[6]
  T/C: 91 % of control

## O=C(c1ccccc1)C(CN1CCOCC1)CN1CCOCC1
[1]
  T/C: 119 % of control
[2]
  T/C: 116 % of control
